Test [1] addresses T1, human amylin receptor (calcitonin receptor co-expressed with receptor activity modifying protein, RAMP3) (hAMYR3) (Homo sapiens, UniProt O60896+P30988).
T1 construct: expressed in transfected cells
T1 sequence (P30988 25-474): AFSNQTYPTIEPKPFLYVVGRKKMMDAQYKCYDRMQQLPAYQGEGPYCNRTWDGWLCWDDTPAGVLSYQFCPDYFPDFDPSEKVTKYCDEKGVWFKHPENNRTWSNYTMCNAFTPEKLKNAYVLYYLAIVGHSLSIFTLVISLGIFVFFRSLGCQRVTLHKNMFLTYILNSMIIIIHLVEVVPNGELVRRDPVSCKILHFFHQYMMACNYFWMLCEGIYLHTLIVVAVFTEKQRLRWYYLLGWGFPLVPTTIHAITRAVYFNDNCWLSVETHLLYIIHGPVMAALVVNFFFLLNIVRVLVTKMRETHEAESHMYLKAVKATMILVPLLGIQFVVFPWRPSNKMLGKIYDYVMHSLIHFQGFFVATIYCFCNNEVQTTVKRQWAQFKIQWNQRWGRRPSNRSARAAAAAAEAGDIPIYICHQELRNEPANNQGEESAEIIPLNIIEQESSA
T1 sequence (O60896 24-148 partner): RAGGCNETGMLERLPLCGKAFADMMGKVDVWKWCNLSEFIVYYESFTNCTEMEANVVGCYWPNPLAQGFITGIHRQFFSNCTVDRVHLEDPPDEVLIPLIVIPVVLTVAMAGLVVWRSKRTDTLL
Kind of test: cAMP production in 1321N1 cells with stable recombinant expression of human amylin receptor (hAMYR3). It counts as cell-based. As to conditions: for Ratio (selectivity hAMYR vs hCTR, ratio of EC50 values at the two receptors): EC50 hCTR / EC50 hAMYR3. The gist of the method: (§1)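 EC50 values come from 4-parameter logistic fits of HTRF cAMP signal, normalised to maximal calcitonin or amylin effect. Peptides were tested in duplicate for 30 min at RT in IBMX-containing (0.5 mM) BSA/HEPES buffer pH 7.4 on stable 1321N1 (human CTR, AMYR3) or HEK (rat CTR, AMYR3) lines.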

Test [2] deals with T2, human calcitonin receptor (hCTR) (Homo sapiens, UniProt P30988).
T2 construct: expressed in transfected cells
T2 sequence (P30988 25-474): T1 sequence (P30988 25-474)
Kind of test: cAMP production in 1321N1 cells with stable recombinant expression of human calcitonin receptor (hCTR). In kind it is cell-based. A digest of the protocol: as §1
For orientation: Changes in cAMP serve as a functional read-out for many G protein-coupled receptors.

The mark [3] stands for this setting: cAMP, 1321N1 cells, assay buffer with 0.1% BSA, read-out: EC50 (pM) hAMYR3.
Where [4] appears, read: cAMP, 1321N1 cells, assay buffer with 0.1% BSA, read-out: EC50 (pM) hCTR.

Molecules are shown by their SMILES. Read-outs that look alike come from different tables or passages of the source. Numbered stars: 1 amine (or outer) side, 2 acyl side, 3 side chain; on linkers, the order of the positions; unused ones are H or OH. Bridge positions count the residues as written; N and C are the ends. Square brackets hold non-standard residues; d marks the D form. Side chains are listed from the residue outwards. Peptide text beside a SMILES is read from it. * marks the point of attachment. C18 diacid = O=C(O)CCCCCCCCCCCCCCCCC(=O)*; γGlu = O=C(O)[C@H](CCC(=O)[*:2])N[*:1]; Aib = CC(C)(N)C(=O)O

As usually defined, the EC50 is the concentration at which the effect is half-maximal.

`CC[C@H](C)[C@H](NC(=O)[C@@H]1CCCN1C(=O)CNC(=O)[C@H](Cc1ccccc1)NC(=O)[C@H](CC(N)=O)NC(=O)C(C)(C)NC(=O)[C@H](CO)NC(=O)[C@H](CO)NC(=O)[C@H](Cc1c[nH]cn1)NC(=O)[C@@H](NC(=O)[C@H](CC(C)C)NC(=O)[C@H](Cc1ccccc1)NC(=O)[C@H](CC(N)=O)NC(=O)[C@H](C)NC(=O)[C@H](CC(C)C)NC(=O)[C@H](CCCNC(=N)N)NC(=O)[C@H](CCC(N)=O)NC(=O)[C@@H](NC(=O)[C@H](C)NC(=O)[C@@H]1CSSC[C@H](NC(=O)[C@@H](N)CCCCNC(=O)CC[C@H](NC(=O)CC[C@H](NC(=O)CCCCCCCCCCCCCCCCC(=O)O)C(=O)O)C(=O)O)C(=O)N[C@@H](CC(N)=O)C(=O)N[C@@H]([C@@H](C)O)C(=O)N[C@@H](C)C(=O)N[C@@H]([C@@H](C)O)C(=O)N1)[C@@H](C)O)C(C)C)C(=O)N[C@@H](CC(C)C)C(=O)N1CCC[C@H]1C(=O)N1CCC[C@H]1C(=O)N[C@H](C(=O)N[C@@H](CC(N)=O)C(=O)N[C@H](C(=O)NCC(=O)N[C@@H](CO)C(=O)NC(C)(C)C(=O)N[C@H](C(=O)N[C@@H](Cc1ccc(O)cc1)C(N)=O)[C@@H](C)O)C(C)C)[C@@H](C)O` [Peptide 91, K(γE-γE-C18diacid)[CNTATC]ATQRLANFLVHSS(Aib)NFGPILPPTNVGS(Aib)TY-amide] (H-K([γGlu-γGlu-C18 diacid])CNTATCATQRLANFLVHSS[Aib]NFGPILPPTNVGS[Aib]TY-NH2; disulfide 2-7; N-terminus assumed): the “Ratio (selectivity hAMYR vs hCTR, ratio of EC50 values at the two receptors)” value in test [1] is 12. Moreover, the EC50 stood at 200 pM in test [1] (setting [3]) and 2360 pM in test [2] (setting [4]).
The matching figures for `CC[C@H](C)[C@H](NC(=O)[C@@H]1CCCN1C(=O)CNC(=O)[C@H](Cc1ccccc1)NC(=O)[C@H](CC(N)=O)NC(=O)[C@H](CC(N)=O)NC(=O)[C@H](CO)NC(=O)[C@H](CO)NC(=O)[C@H](Cc1c[nH]cn1)NC(=O)C(C)(C)NC(=O)[C@H](CC(C)C)NC(=O)[C@H](Cc1ccccc1)NC(=O)[C@H](CC(N)=O)NC(=O)[C@H](C)NC(=O)[C@H](CC(C)C)NC(=O)[C@H](CCCNC(=N)N)NC(=O)[C@H](CCC(N)=O)NC(=O)[C@@H](NC(=O)[C@H](C)NC(=O)[C@@H]1CSSC[C@H](NC(=O)[C@H](CCCCN)NC(=O)CNC(=O)CNC(=O)[C@@H](N)CCCCNC(=O)CC[C@H](NC(=O)CCCCCCCCCCCCCCCCC(=O)O)C(=O)O)C(=O)N[C@@H](CC(N)=O)C(=O)N[C@@H]([C@@H](C)O)C(=O)N[C@@H](C)C(=O)N[C@@H]([C@@H](C)O)C(=O)N1)[C@@H](C)O)C(=O)N[C@@H](CC(C)C)C(=O)N1CCC[C@H]1C(=O)N1CCC[C@H]1C(=O)N[C@H](C(=O)N[C@@H](CC(N)=O)C(=O)N[C@H](C(=O)NCC(=O)N[C@@H](CO)C(=O)N[C@@H](CC(N)=O)C(=O)N[C@H](C(=O)N[C@@H](Cc1ccc(O)cc1)C(N)=O)[C@@H](C)O)C(C)C)[C@@H](C)O` [Peptide 143] (H-K([γGlu-C18 diacid])GGKCNTATCATQRLANFL[Aib]HSSNNFGPILPPTNVGSNTY-NH2; disulfide 5-10; N-terminus assumed): 11.7, 592 pM and 6940 pM.
Regarding `CC[C@H](C)[C@H](NC(=O)[C@@H]1CCCN1C(=O)CNC(=O)[C@H](Cc1ccccc1)NC(=O)[C@H](CC(N)=O)NC(=O)C(C)(C)NC(=O)[C@H](CO)NC(=O)[C@H](CO)NC(=O)[C@H](Cc1c[nH]cn1)NC(=O)[C@@H](NC(=O)[C@H](CC(C)C)NC(=O)[C@H](Cc1ccccc1)NC(=O)[C@H](CC(N)=O)NC(=O)[C@H](C)NC(=O)[C@H](CC(C)C)NC(=O)[C@H](CCCNC(=N)N)NC(=O)[C@H](CCC(N)=O)NC(=O)[C@@H](NC(=O)[C@H](C)NC(=O)[C@@H]1CSSC[C@H](NC(=O)[C@@H](N)CCCCNC(=O)CC[C@H](NC(=O)CC[C@H](NC(=O)CCCCCCCCCCCCCCCCC(=O)O)C(=O)O)C(=O)O)C(=O)N[C@@H](CC(N)=O)C(=O)N[C@@H]([C@@H](C)O)C(=O)N[C@@H](C)C(=O)N[C@@H]([C@@H](C)O)C(=O)N1)[C@@H](C)O)C(C)C)C(=O)N[C@@H](CC(C)C)C(=O)N1CCC[C@H]1C(=O)N1CCC[C@H]1C(=O)N[C@H](C(=O)NC(C)(C)C(=O)N[C@H](C(=O)NCC(=O)N[C@@H](CO)C(=O)N[C@@H](CC(N)=O)C(=O)N[C@H](C(=O)N[C@@H](Cc1ccc(O)cc1)C(N)=O)[C@@H](C)O)C(C)C)[C@@H](C)O` [Peptide 89, K(γE-γE-C18diacid)[CNTATCJATQRLANFLVHSS(Aib)NFGPILPPT(Aib)VGSNTY-amide] (H-K([γGlu-γGlu-C18 diacid])CNTATCATQRLANFLVHSS[Aib]NFGPILPPT[Aib]VGSNTY-NH2; disulfide 2-7; N-terminus assumed), the EC50 in test [1] came to 447 pM; in test [2], 8240 pM.
With `CC[C@H](C)[C@H](NC(=O)[C@@H]1CCCN1C(=O)CNC(=O)[C@H](Cc1ccccc1)NC(=O)[C@H](CC(N)=O)NC(=O)[C@H](Cc1c[nH]cn1)NC(=O)[C@H](CO)NC(=O)[C@H](CO)NC(=O)[C@H](Cc1c[nH]cn1)NC(=O)C(C)(C)NC(=O)[C@H](CC(C)C)NC(=O)[C@H](Cc1ccccc1)NC(=O)[C@H](CCC(=O)O)NC(=O)[C@H](C)NC(=O)[C@H](CC(C)C)NC(=O)[C@H](CCCNC(=N)N)NC(=O)[C@H](CCC(N)=O)NC(=O)[C@@H](NC(=O)[C@H](C)NC(=O)[C@@H]1CSSC[C@H](NC(=O)[C@H](CCCCN)NC(=O)[C@@H](N)CCCCNC(=O)CC[C@H](NC(=O)CCCCCCCCCCCCCCCCC(=O)O)C(=O)O)C(=O)N[C@@H](CC(N)=O)C(=O)N[C@@H]([C@@H](C)O)C(=O)N[C@@H](C)C(=O)N[C@@H]([C@@H](C)O)C(=O)N1)[C@@H](C)O)C(=O)N[C@@H](CC(C)C)C(=O)N1CCC[C@H]1C(=O)N1CCC[C@H]1C(=O)N[C@H](C(=O)N[C@@H](CC(N)=O)C(=O)N[C@H](C(=O)NCC(=O)N[C@@H](CO)C(=O)N[C@@H](CC(N)=O)C(=O)N[C@H](C(=O)N[C@@H](Cc1ccc(O)cc1)C(N)=O)[C@@H](C)O)C(C)C)[C@@H](C)O` [Peptide 130] (H-K([γGlu-C18 diacid])KCNTATCATQRLAEFL[Aib]HSSHNFGPILPPTNVGSNTY-NH2; disulfide 3-8; N-terminus assumed), in test [1], the “Ratio (selectivity hAMYR vs hCTR, ratio of EC50 values at the two receptors)” value is reported as 15. Further, the EC50 in test [1] (setting [3]) amounted to 446 pM; in test [2] (setting [4]) it was 6690 pM.

The values above are taken from patent US20240067693A1, “POLYPEPTIDES AND USES THEREOF” (MEDIMMUNE LIMITED, priority 2020, published 2024).
